Source: PMC11141368, “Antioxidant, antibacterial, enzyme inhibition and fluorescence characteristics of unsymmetrical thiourea derivatives” (Heliyon, 2024)
Where “and” joins values, the source holds several entries; their conditions need not be identical. Identical values can stand only once.

Key:
S. typhi = test: Antibacterial agar well diffusion; format: cell-based, Salmonella typhi (ATCC0650); conditions: 24 h, 6.25 mg/mL per well, 37 °C; for zone of inhibition at 6250 µg/mL: Salmonella enterica, TYPHI
Text: (§1) The antibacterial assay was done for all compounds (1–6) as described in previous studies. The mean number of viable organisms per milliliter of stock suspensions containing Escherichia coli (ATCC25922), Pseudomonas aeruginosa (ATCC27853), Salmonella typhi (ATCC0650), and Staphylococcus aureus (NCTC25953) was uncovered using the surface viable counting method. Preparations of suspensions containing approximately 108–109 colony forming units (CFU) per milliliter were made. Aseptic nutritional agar was formulated and transferred onto petri dishes. Cultures of bacteria were uniformly distributed on agar surface using sterile brush sticks. Five wells, each with a diameter of 6 mm, were made in each plate using a sterile borer. Afterwards, a concentration of 6.25 mg/mL of each component was applied to separate wells. Cephradine, a readily accessible antibiotic, was employed as a reference standard at an equivalent concentration. Following sealing, the agar dishes were incubated at a controlled temperature of 37 °C for a period of 24 h. The zone of inhibition in the plates was determined, which represents the inhibition of bacterial growth. Each sample zone of inhibition diameter was evaluated, and the antibacterial effectiveness of each drug was quantified according to the mean diameter of the inhibition zone (in millimetres).

E. coli = test: Antibacterial agar well diffusion; format: cell-based, Escherichia coli (ATCC25922); conditions: Escherichia coli, 24 h, 6.25 mg/mL per well, 37 °C
Text: as §1

[1] = biological target: T1, butyryl cholinesterase (BChE) (Equus caballus, UniProt P81908); test: Anticholinesterase assay (Elman's test), BChE; format: biochemical; conditions: for inhibition at 62.5 µg/mL / inhibition at 125 µg/mL / inhibition at 250 µg/mL / inhibition at 500 µg/mL / inhibition at 1000 µg/mL: read-out: BChE Percent inhibition
T1 construct: The AChE was derived from the electric eel, while BChE was obtained from equineserum; from tissue; host or cells: equine serum
T1 sequence (P81908 whole entry): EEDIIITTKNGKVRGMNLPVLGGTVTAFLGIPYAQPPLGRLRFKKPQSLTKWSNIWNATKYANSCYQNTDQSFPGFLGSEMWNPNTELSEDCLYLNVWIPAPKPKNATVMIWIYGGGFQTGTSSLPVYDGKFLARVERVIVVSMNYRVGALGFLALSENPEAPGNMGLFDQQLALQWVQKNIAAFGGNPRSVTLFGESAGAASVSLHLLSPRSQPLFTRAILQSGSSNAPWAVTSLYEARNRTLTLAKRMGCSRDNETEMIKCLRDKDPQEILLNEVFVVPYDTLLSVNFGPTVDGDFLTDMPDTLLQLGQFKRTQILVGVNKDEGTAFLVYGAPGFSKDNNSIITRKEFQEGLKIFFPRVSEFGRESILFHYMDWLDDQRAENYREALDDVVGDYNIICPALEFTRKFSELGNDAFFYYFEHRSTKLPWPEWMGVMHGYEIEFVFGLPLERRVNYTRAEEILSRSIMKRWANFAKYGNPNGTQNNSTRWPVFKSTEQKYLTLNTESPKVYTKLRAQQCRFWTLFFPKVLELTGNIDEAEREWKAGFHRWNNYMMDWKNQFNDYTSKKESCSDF
Protocol: (§2) This assay employed two enzymes, namely acetylcholinesterase (AChE) and butyryl cholinesterase (BChE). The AChE was derived from the electric eel, while BChE was obtained from equineserum. The synthesized compounds were dissolved in phosphate buffer (0.1 M, pH 8.0). The enzymes AChE (518 U/mg) and BChE (7–16 U/mg) were diluted in a 0.1 M phosphate buffer to achieve concentrations of 0.03 U/mL and 0.01 U/mL, respectively. Preparations of ATchI (0.5 mM), DTNB (0.2273 mM), and BTchI (0.5 mM) were made in distilled water and stored at a low temperature of 8 °C. […] The solution was heated to 30 °C for 15 min, followed by the gradual addition of the substrate. Absorbance of the heated sample at 412 nm was measured using a double beam spectrophotometer. […] The percentage activity (A) and inhibition of the enzyme were determined by applying the rate of absorption as a function of time (V=ΔAbs/Δt) using the following equation (Equation (2)).(2) %Inhibition=V/Vmax×100 Where V = enzyme inhibition activity of products and Vmax = enzyme activity without test of product.

[2] = ABTS free radical scavenging assay; format: biochemical
Protocol: (§3) In accordance with the procedure described in the literature, the ABTS activity assay was applied to evaluate the free radical scavenging capabilities of the synthesized compounds (1–6). ABTS solution was prepared by mixing 7 mM ABTS and 2.45 mM potassium persulfate and was then placed for 16 h under dark at room temperature. A methanol dilution was performed on the solution to achieve an absorbance of 0.706 ± 0.001 at 734 nm before starting the assay. To quantify the assay, 3 mL of the ABTS solution has been added to different concentrations (ranging from 62.5 to 1000 μg/mL) of every compound (300 μL) that were dissolved in methanol. Then after 1 min of incubation, the absorbance was continuously measured for 5 min. To confirm precision, all experiments were conducted in triplicate. The antioxidant capacities of the compounds were assessed with gallic acid as a reference, and the ability to remove free radicals was calculated as a percentage for each compound employing Equation.1 as presented below. Additionally, the DPPH free radical scavenging method was employed to assess the antioxidant activity of compounds (1–6), in accordance with a widely recognized procedure documented in existing literature. Concentrations ranging from 62.5 to 1000 μg/mL of compounds (1–6), dissolved in methanol, were introduced into a 2 mL solution of DPPH (0.002 % in methanol). The resulting solutions were kept in the dark at room temperature for a duration of 30 min. The amount of light absorbed by the solutions was then determined using a UV/vis spectrophotometer at a wavelength of 517 nm. The investigations were performed three times, using the exact protocol described for the ABTS scavenging assay. Afterwards, the antioxidant capabilities of each molecule were assessed using calculation.(1) Scavengingactivity(%)=A−B/A×100
(§4) Where, A = absorbance of ABTS/DPPH and B = absorbance of solution containing ABTS/DPPH and test samples.

[3] = biological target: T2, acetylcholinesterase (AChE) (Electrophorus electricus, UniProt O42275); test: biochemical; conditions: for inhibition at 62.5 µg/mL / inhibition at 125 µg/mL / inhibition at 250 µg/mL / inhibition at 500 µg/mL / inhibition at 1000 µg/mL: read-out: AChE Percent inhibition
T2 construct: The AChE was derived from the electric eel, while BChE was obtained from equineserum; from tissue; host or cells: electric eel (tissue not specified)
T2 sequence (O42275 24-633): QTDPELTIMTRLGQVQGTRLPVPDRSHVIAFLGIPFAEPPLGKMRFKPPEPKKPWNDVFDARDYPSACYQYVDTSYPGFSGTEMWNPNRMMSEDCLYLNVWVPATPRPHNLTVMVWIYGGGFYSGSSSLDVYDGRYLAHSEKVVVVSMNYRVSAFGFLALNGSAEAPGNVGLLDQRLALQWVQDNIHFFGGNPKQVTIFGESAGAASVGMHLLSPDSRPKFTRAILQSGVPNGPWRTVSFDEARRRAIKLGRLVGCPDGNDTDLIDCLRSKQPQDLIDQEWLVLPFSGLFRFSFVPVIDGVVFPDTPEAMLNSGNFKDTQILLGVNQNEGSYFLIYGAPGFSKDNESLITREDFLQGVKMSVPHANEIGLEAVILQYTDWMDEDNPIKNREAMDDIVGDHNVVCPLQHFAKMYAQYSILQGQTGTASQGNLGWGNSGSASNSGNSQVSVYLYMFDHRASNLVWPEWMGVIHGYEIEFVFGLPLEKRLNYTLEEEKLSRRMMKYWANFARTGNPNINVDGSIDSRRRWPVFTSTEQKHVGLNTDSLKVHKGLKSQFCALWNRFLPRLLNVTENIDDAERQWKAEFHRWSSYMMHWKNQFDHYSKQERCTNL
Protocol: as §2

P. aeruginosa = test: Antibacterial agar well diffusion; format: cell-based, Pseudomonas aeruginosa (ATCC27853); conditions: Pseudomonas aeruginosa, 24 h, 6.25 mg/mL per well, 37 °C
Text: as §1

S. flexenari = test: Antibacterial agar well diffusion; format: cell-based; conditions: 24 h, 6.25 mg/mL per well, 37 °C
[4] = DPPH free radical scavenging assay; format: biochemical
Protocol: as §3, §4

| SMILES | zone of inhibition at 6250 µg/mL (S. typhi) [mm] | zone of inhibition at 6250 µg/mL (E. coli) [mm] | IC50 [1] [µM] | inhibition at 62.5 µg/mL [1] [%] | inhibition at 125 µg/mL [1] [%] | inhibition at 250 µg/mL [1] [%] | inhibition at 500 µg/mL [1] [%] | inhibition at 1000 µg/mL [1] [%] | ABTS IC50 [2] [µg/mL] | ABTS %inhibition ([2]; 62.5 μg/mL) [%] | ABTS %inhibition ([2]; 125 μg/mL) [%] | ABTS %inhibition ([2]; 250 μg/mL) [%] | ABTS %inhibition ([2]; 500 μg/mL) [%] | ABTS %inhibition ([2]; 1000 μg/mL) [%] | DPPH IC50 [4] [µg/mL] | DPPH %inhibition ([4]; 62.5 μg/mL) [%] | DPPH %inhibition ([4]; 125 μg/mL) [%] | DPPH %inhibition ([4]; 250 μg/mL) [%] | DPPH %inhibition ([4]; 500 μg/mL) [%] | DPPH %inhibition ([4]; 1000 μg/mL) [%] | also measured |
| --- | --- | --- | --- | --- | --- | --- | --- | --- | --- | --- | --- | --- | --- | --- | --- | --- | --- | --- | --- | --- | --- |
| S=C(Nc1ccccn1)NC1CCCCC1 [Compound 1, 1-cyclohexyl-3-(pyridin-2-yl) thiourea] | 10 | 9.5 | 96 | 65.8 ± 1.5 | 71.6 ± 1.06 | 76.42 ± 0.43 | 84.2 ± 1.83 | 91.76 ± 0.71 | 67.08 | 47.65 ± 1.74 | 54.45 ± 0.96 | 63.59 ± 2.50 | 72.20 ± 1.90 | 84.81 ± 1.17 | 63.02 | 48.57 ± 2.03 | 54.32 ± 1.89 | 63.01 ± 1.65 | 75.63 ± 2.60 | 85.10 ± 1.45 | IC50 [3]: 115 µM and 117 µM; inhibition at 62.5 µg/mL [3]: 62.44 ± 0.58%; inhibition at 125 µg/mL [3]: 67.6 ± 1.73%; inhibition at 250 µg/mL [3]: 74.3 ± 2.15%; inhibition at 500 µg/mL [3]: 81.7 ± 1.34%; inhibition at 1000 µg/mL [3]: 88.6 ± 1.12%; zone of inhibition at 6250 µg/mL (P. aeruginosa): 9 mm; zone of inhibition at 6250 µg/mL (S. flexenari): 8.5 mm |
| Cc1cccnc1NC(=S)NC1CCCCC1 [Compound 2, 1-cyclohexyl-3-(3-methylpyridin-2-yl)thiourea] | 11.5 | 9.5 | 1260 | 31.5 ± 0.71 | 37.5 ± 0.77 | 45.8 ± 0.58 | 56.45 ± 0.49 | 64.79 ± 0.62 | 82.02 | 45.52 ± 2.80 | 51.10 ± 1.39 | 60.39 ± 1.71 | 70.37 ± 2.37 | 79.87 ± 2.65 | 72.00 | 46.51 ± 2.74 | 54.86 ± 2.86 | 64.15 ± 2.10 | 73.41 ± 2.87 | 81.22 ± 2.89 | IC50 [3]: 1480 µM; inhibition at 62.5 µg/mL [3]: 29.7 ± 0.61%; inhibition at 125 µg/mL [3]: 35.7 ± 0.77%; inhibition at 250 µg/mL [3]: 43.8 ± 0.56%; inhibition at 500 µg/mL [3]: 54.6 ± 0.8%; inhibition at 1000 µg/mL [3]: 62.6 ± 0.77%; zone of inhibition at 6250 µg/mL (P. aeruginosa): 13.5 mm; zone of inhibition at 6250 µg/mL (S. flexenari): 11 mm |
| Cc1ccc(NC(=S)NC2CCCCC2)c(C)c1 [Compound 3, 1-cyclohexyl-3-(2,4-dimethylphenyl) thiourea] | 8.5 | 11 | 468 | 44.29 ± 0.43 | 50.23 ± 0.44 | 55.8 ± 1.07 | 61.87 ± 0.39 | 67.44 ± 0.09 | 115.07 | 46.06 ± 1.86 | – | 62.14 ± 1.30 | 71.16 ± 2.10 | 80.11 ± 1.01 | 118.05 | 46.72 ± 2.13 | 51.88 ± 1.29 | 62.53 ± 1.11 | 71.19 ± 1.27 | 80.38 ± 1.10 | IC50 [3]: 548 µM; inhibition at 62.5 µg/mL [3]: 43.7 ± 0.66%; inhibition at 125 µg/mL [3]: 49.7 ± 0.35%; inhibition at 250 µg/mL [3]: 53.1 ± 0.62%; inhibition at 500 µg/mL [3]: 59.01 ± 0.42%; inhibition at 1000 µg/mL [3]: 65.5 ± 2.26%; zone of inhibition at 6250 µg/mL (P. aeruginosa): 13.5 mm; zone of inhibition at 6250 µg/mL (S. flexenari): 10 mm |
| COc1ccc2c3c1O[C@H]1C[C@@H](O)C=C[C@@]31CCN(C)C2 [Galantamine, reference compound] | – | – | – | 64.9 ± 0.87 | 67.9 ± 0.98 | – | 81.83 ± 0.37 | 89.64 ± 0.62 | – | – | – | – | – | – | – | – | – | – | – | – | – |
| O=C(O)c1cc(O)c(O)c(O)c1 [Gallic acid, gallic acid, reference compound] | – | – | – | – | – | – | – | – | 39.54 | 51.68 ± 0.22 | 59.84 ± 0.32 | 66.43 ± 0.29 | 71.88 ± 0.20 | 75.89 ± 0.20 | 27.06 | 57.54 ± 0.46 | 63.83 ± 1.07 | 69.47 ± 0.46 | 75.45 ± 0.45 | 81.45 ± 0.65 | – |
| CC1=C(C(=O)O)N2C(=O)[C@@H](NC(=O)[C@H](N)C3=CCC=CC3)[C@H]2SC1 [Std.Drug, Cephradine, reference compound] | 15 | – | – | – | – | – | – | – | – | – | – | – | – | – | – | – | – | – | – | – | Zone of inhibition (S. typhi): 25 mm and 20 mm and 14 mm and 13 mm |
